Measurements from patent US12668646B2, “Cross-linking compounds and methods of use thereof” (North Carolina State University, priority 2019, dated 2026).
Several values for one entry are separate records, joined by “and”; a condition that tells them apart may be missing. Equal values may be shown once.

Columns and labels:
tritosomes = experiment: Indigoid dye formation with tritosomes; format: biochemical
Protocol: The results from the glucosidase survey prompted several further experiments. First, a parallel set of studies was carried out with inclusion of several oxidants commonly employed in histochemical studies, given that the indigoid dye forming process requires the presence of an oxidant. […] The activity of the β-glucosidase was affected only slightly in the presence of a non-ionic detergent. To verify that the results observed in Table 1 were reliable, a 5-mg scale reaction of 33 was carried out to isolate indigo 43, which was obtained in 66% yield (Scheme 7). The 66% isolated yield corresponded well with the enzymatic yield of […] (Table 1, entry 15).
General methods. β-Glucosidase from almonds (lyophilized powder, ≥2 units/mg solid) and peroxidase from horseradish were purchased from Sigma-Aldrich. β-Glucosidase from Agrobacterium sp. (recombinant, suspension in 3.2 M (NH4)2SO4) was purchased from Megazyme; the concentration in solution was determined by absorption spectroscopy with E^0.1%=2.20 cm^−1 at 280 nm.^37 Tritosomes were purchased from XenoTech. Rat liver homogenate was purchased from MP Biomedicals.

β-glucosidase = experiment: Treatment of F-9 with β-glucosidase; format: biochemical; settings: result in words
Protocol: Triazine-based A2BC architectures. Cyanuric chloride (F-8) was treated with 2 equiv of F-7 followed by tyramine to afford F-9 in 56% yield (Scheme 17). […] Treatment of N-(6-hydroxyhexyl)maleimide (F-10) (K. A. Keller, et al., Tetrahedron Lett., 2005, 46, 1181-1184. “A Thermally-Cleavable Linker for Solid-Phase Synthesis”) with cyanuric chloride (F-8) followed by F-9 in the presence of bases gave F-11 in 77% yield. […] While F-9 and F-11 were attractive from a synthetic standpoint given the ability to derivatize the 5-hydroxy group of the indoxyl unit without protection of the four hydroxy groups of the glucosyl unit, the reaction with a β-glucosidase was sine qua non in the molecular design. Accordingly, we moved to the design of a more suitable architecture.

[1] = tested on: β-glucosidase from almonds; experiment: Indigogenic reaction with β-glucosidase from almonds; format: biochemical
[2] = target: T1, β-glucosidase from Agrobacterium (Agrobacterium sp., UniProt P12614); experiment: Indigogenic reaction with β-glucosidase from Agrobacterium; format: biochemical; settings: for Yield of indigoid dye: 33 100 μM, enzyme 200 nM; for Yield (%) β-glucosidase from Agrobacterium: as E4 but ϵ = 2.6 × 10^4 M^−1 cm^−1 measured for 43
T1 construct: purchased Megazyme
T1 sequence (P12614 1-459): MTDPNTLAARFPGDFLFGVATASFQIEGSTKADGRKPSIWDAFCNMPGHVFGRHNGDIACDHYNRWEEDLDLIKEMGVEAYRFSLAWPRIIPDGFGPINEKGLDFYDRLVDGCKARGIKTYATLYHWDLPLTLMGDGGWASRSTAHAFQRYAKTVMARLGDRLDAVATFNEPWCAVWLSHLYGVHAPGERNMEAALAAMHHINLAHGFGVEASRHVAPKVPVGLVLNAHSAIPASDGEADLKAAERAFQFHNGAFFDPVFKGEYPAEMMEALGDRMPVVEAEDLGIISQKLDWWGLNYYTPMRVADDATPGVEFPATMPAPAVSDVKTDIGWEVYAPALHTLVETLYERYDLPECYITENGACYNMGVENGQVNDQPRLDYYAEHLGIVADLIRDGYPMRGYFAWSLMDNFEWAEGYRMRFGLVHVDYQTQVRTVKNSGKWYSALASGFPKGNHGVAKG
Protocol: Next, the β-glucosidase from Agrobacterium sp. was investigated as the trigger enzyme for indigoid dye formation. […] The reaction was carried out using the enzyme (200 nM) and indoxyl-glucoside 33 (100 μM) in phosphate buffer (pH 4-9, containing 2% DMF) at 37° C. […] Note that with 200 nM enzyme and 100 μM substrate, complete reaction requires 500 turnovers of each enzyme.
Reactions with β-glucosidase from Agrobacterium. An indoxyl compound in DMF (2 μL, 5 mM) and β-glucosidase from Agrobacterium in 10 mM phosphate buffer [2 μL, 10 μM, pH 7.0, containing 50 mM NaCl and 0.6 M (NH4)2SO4] were mixed with 50 mM phosphate buffer (96 μL, pH 7.0). The reaction mixture was incubated at 37° C. for 2 h and then centrifuged for 3 min. Any precipitate was separated from the supernatant and dissolved in DMF (200 μL). The resulting solution was analyzed by absorption spectroscopy. The experiment was repeated three times.

rat liver homogenate = experiment: Indigoid-dye formation in rat liver homogenate; format: biochemical; settings: as E7 but ϵ = 2.6 × 10^4 M^−1 cm^−1 measured for 43
Protocol: Finally, indigoid-dye formation was carried out in rat liver homogenate (Table 1, rightmost column).
Reactions in rat liver homogenate. An indoxyl compound in DMF (5 μL, 20 mM) was mixed with rat liver homogenate (95 μL). The reaction mixture was incubated at 37° C. for 24 h. After allowing to cool to room temperature, the reaction mixture was diluted with DMF (900 μL). The mixture was heated at 70° C. for 2 min and then centrifuged for 2 min. The supernatant was separated from any precipitate. This extraction procedure was repeated two or three times with DMF (100-500 μL). The combined supernatant (1500-1800 μL) was analyzed by absorption spectroscopy.

[3] = target: T2, β-glucosidase from Agrobacterium plus rat liver homogenate (Agrobacterium sp., UniProt P12614); experiment: Reaction with β-glucosidase from Agrobacterium in rat liver homogenate; format: biochemical; settings: 33 100 μM, enzyme 200 nM, 2% DMF, 37° C., 4 h; ϵ = 2.6 × 10^4 M^−1 cm^−1
T2 construct: purchased Megazyme
T2 sequence (P12614 1-459): T1 sequence (P12614 1-459)
Protocol: Finally, indigoid-dye formation was carried out in rat liver homogenate (Table 1, rightmost column). Good yields were obtained in the case of 42 (65%, entry 4) and 27 (50%, entry 13). […] However, when β-glucosidase from Agrobacterium (200 nM) was present in rat liver homogenate, the indigoid dye was obtained in 81% yield (entry 15).
Reaction of 33 with β-glucosidase from Agrobacterium in rat liver homogenate. A DMF solution of 33 (2 μL, 5 mM) and β-glucosidase from Agrobacterium in 10 mM phosphate buffer [2 μL, 10 μM, pH 7.0, containing 50 mM NaCl and 0.6 M (NH4)2SO4] were mixed with rat liver homogenate (96 μL). The reaction mixture was incubated at 37° C. for 4 h and then centrifuged for 3 min. Any precipitate was separated from the supernatant and then suspended in DMF (200 μL). The suspension was centrifuged for 3 min. The supernatant was analyzed by absorption spectroscopy.

[4] = Solubility in aqueous buffer; format: physicochemical; settings: 100 mM phosphate buffer (pH 7.4, containing 100 mM NaCl), room temperature
Text: Water solubility of the indoxyl glucoside is important for biological applications. […] Therefore, this compound is not suitable for bioconjugation. The synthesis of 34 relies on successive substitution of the dichloroanilinotriazine unit (derived from N,N-bis(2-methoxyethyl)aniline^31 and cyanuric chloride) with indoxyl-glucoside-PEG-OH and BCN-PEG-NH2 building blocks.
To improve the water solubility of the indoxyl species, a sulfobetaine unit^32,33 was incorporated as a water-solubilizing group. Sulfobetaines are stable zwitterions over a wide range of pH. Synthesis of an indoxyl bearing a sulfobetaine unit is illustrated in Scheme 6. Boc-piperazine (35) was treated with 1,3-propane sultone to afford 36 in 63% yield. Quaternization of the tertiary nitrogen atom in 36 with 3-bromopropanol gave Boc-protected sulfobetaine 37 in 69% yield. The Boc group was cleaved with trifluoroacetic acid (TFA) to afford piperazine-TFA salt 38 in 97% yield. The N-acetyl group of 32 was selectively deprotected with NaHCO3/MeOH in 84% yield. The product 39, piperazine-TFA salt 38, and BCN-amine 14 were assembled at a triazine ring via one-flask, successive substitution of cyanuric chloride to afford 40 in 51% yield. Cleavage of the acetyl groups of sulfobetaine 40 provided 41 in 98% yield.

Structure (SMILES) | Yield of indigoid dye with tritosomes (tritosomes) | Indigoid dye formation upon treatment with β-glucosidase (β-glucosidase) | Isolated yield of indigo 43 ([1]; 5-mg scale reaction of 33, acetate buffer pH 5.0, 37° C., 22 h) [%] | Yield (%) β-glucosidase from almonds ([1]; as E1 but ϵ = 2.6 × 10^4 M^−1 cm^−1 measured for 43) | Yield of indigoid dye ([2]; pH 6-9, 3 h, in words) | Yield of indigoid dye ([2]; phosphate buffer pH 4, 3 h) [%] | Yield of indigoid dye ([2]; phosphate buffer pH 5, 3 h) [%] | Yield (%) β-glucosidase from Agrobacterium [2] | Yield (%) rat liver homogenate (rat liver homogenate) [%] | Yield (%) β-glucosidase from Agrobacterium plus rat liver homogenate [3] [%] | solubility [4] [µM]
OC[C@H]1O[C@@H](Oc2c[nH]c3ccc(Oc4nc(NCCc5ccc(O)cc5)nc(Oc5ccc6[nH]cc(O[C@@H]7O[C@H](CO)[C@@H](O)[C@H](O)[C@H]7O)c6c5)n4)cc23)[C@H](O)[C@@H](O)[C@@H]1O [Compound F-9, 2,4-Bis[3-(β-D-glucopyranosyloxy)-1H-indol-5-yloxy]-6-[2-(4-hydroxyphenyl)ethylamino]-1,3,5-triazine] | ca. 4% | did not form the corresponding indigoid dye |  |  |  |  |  |  |  |  | 
OCCOCCOCCOc1c(Br)cc2[nH]cc(O[C@@H]3O[C@H](CO)[C@@H](O)[C@H](O)[C@H]3O)c2c1Br [Compound 33, 4,6-Dibromo-5-[1-hydroxy-3,6,9-trioxanon-9-yl]-1H-indol-3-yl β-D-glucopyranoside] |  |  | 66 | 52% and 52^g % | High to quantitative yields | 6 | 38 | 99% | < 5 | 81 | 
O=C(NCCOCCOCCNc1nc(OCCOCCOCCOc2c(Br)cc3[nH]cc(O[C@@H]4O[C@H](CO)[C@@H](O)[C@H](O)[C@H]4O)c3c2Br)nc(N2CC[N+](CCCO)(CCCS(=O)(=O)[O-])CC2)n1)OC[C@@H]1[C@@H]2CCC#CCC[C@@H]21 [Compound 41] |  |  |  |  |  |  |  | 106% and 106 ± 4^g % |  |  | > 400
